Laboratory results from PMC2783484 (Molecular and biochemical parasitology, 2009).
Where two headings read alike, the source gives them in different places.

Tests used:
[1] = target: T1, PfENT1 (Plasmodium falciparum, UniProt Q8IDM6); assay: Uptake competition vs [3H]hypoxanthine in PfENT1-expressing Xenopus oocytes; type: cell-based; conditions: for Ki / competition with uptake of 100 nM [3H]hypoxanthine: 10 min uptake; for Ki: one site fit, Cheng-Prusoff, mean ± SEM; for competition with uptake of 100 nM [3H]hypoxanthine: 2.5 and 10 mM competitor
T1 sequence (Q8IDM6 whole entry): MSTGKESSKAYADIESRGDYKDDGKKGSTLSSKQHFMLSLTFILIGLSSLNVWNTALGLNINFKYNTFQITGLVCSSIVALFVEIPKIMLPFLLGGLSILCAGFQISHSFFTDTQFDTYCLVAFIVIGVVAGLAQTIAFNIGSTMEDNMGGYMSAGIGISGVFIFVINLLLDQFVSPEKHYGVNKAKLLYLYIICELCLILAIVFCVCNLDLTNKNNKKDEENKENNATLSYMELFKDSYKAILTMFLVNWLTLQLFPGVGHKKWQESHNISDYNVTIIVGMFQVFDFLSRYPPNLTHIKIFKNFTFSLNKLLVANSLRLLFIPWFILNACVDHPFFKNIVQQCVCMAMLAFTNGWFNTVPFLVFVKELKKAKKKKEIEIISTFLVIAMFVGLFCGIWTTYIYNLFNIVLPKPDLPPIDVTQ

[2] = target: T1, PfENT1; assay: Uptake competition vs [3H]adenosine in PfENT1-expressing Xenopus oocytes; type: cell-based
[3] = target: T1, PfENT1; assay: Time course of radiolabeled substrate uptake by PfENT1-expressing oocytes; type: cell-based; conditions: […] [3H] substrate
[4] = target: T1, PfENT1; conditions: cited from earlier work
[5] = test system: intact parasites; conditions: read-out: Km for uptake in intact parasites; Quashie et al. (2008); cited from earlier work
[6] = test system: PfHGXPRT; conditions: read-out: Km for HGXPRT; cited from earlier work
[7] = test system: P. falciparum; conditions: cited from earlier work; for concentration toxic to parasite growth: as sole purine source in culture
[8] = Ki, Competition vs. [3H]hypoxanthine, 100 nM [3H]hypoxanthine
[9] = read-out: PfENT1 Km, Xenopus oocytes, Carter and coworkers
[10] = read-out: PfENT1 transport Km, Xenopus oocytes, Parker et al.

Compound `O=c1[nH]cnc2cc[nH]c12` [9-Deaza-hypoxanthine, 9-Deazahypoxanthine] has a Ki [1, 8] of 710 ± 410 µM and a Ki [2] of 940 ± 270 µM.
In the case of `Nc1ncnc2c1ncn2[C@@H]1O[C@H](CO)[C@@H](O)[C@H]1O` [Adenosine], the “uptake per oocyte at 60 min” value [3] is given as roughly 7 pmol, the Km [4, 9] is given as 13 µM and the Km ([4]; read-out: PfENT1 adenosine Km, Downie et al.) is given as 1860 µM. The Km [4, 10] was 320 µM.
In the case of `O=c1[nH]cnc2nc[nH]c12` [Hypoxanthine], the “block of [3H]hypoxanthine uptake” value ([1]; 2 mM unlabeled hypoxanthine, 100 nM [3H]hypoxanthine) is listed as ~ 90%, the Ki [1, 8] is listed as 300 ± 32 µM and the Km [5] is listed as 0.34 µM. The Km [4, 10] was 410 µM and the Km [6] was 0.46 µM.
For `O=c1[nH]cnc2c([C@@H]3N[C@H](CO)[C@@H](O)[C@H]3O)c[nH]c12` [ImmH, Immucillin-H], the “competition with uptake of 100 nM [3H]hypoxanthine” value (“competition with uptake of 100 nM” for short) [1] is given as “failed to compete” and the “inhibition of parasite growth” value ([7]; 10 μM immucillinH in the presence of 10 μM hypoxanthine) is given as “completely inhibited parasite growth”.
In the case of `Nc1ncnc2c(C3N[C@H](CO)[C@@H](O)[C@H]3O)c[nH]c12` (some centres unmarked) [Immucillin-A], the “competition with uptake of 100 nM” value [1] is reported as “failed to compete”.
With `Nc1nc2c([C@@H]3N[C@H](CO)[C@@H](O)[C@H]3O)c[nH]c2c(=O)[nH]1` [Immucillin-G] the “competition with uptake of 100 nM” value [1] was “failed to compete”.
For `Nc1ncnc2c1c(I)cn2[C@@H]1O[C@H](CO)[C@@H](O)[C@H]1O` [Iodotubercidin, 5′-iodotubercidin], the Ki [1, 8] was 54 ± 8 µM, the Ki [2] was 66 ± 15 µM and the “second site, fold higher apparent affinity” value ([2]; two-site fit vs [3H]adenosine) was 1000 fold.
For `CSC[C@H]1N[C@@H](c2c[nH]c3c(=O)[nH]cnc23)[C@H](O)[C@@H]1O` [MT-ImmH], the “effect on malaria parasites during in vitro culture” value [7] is given as “lethal”.
Compound `CSC[C@H]1O[C@@H](n2ccc3c(N)ncnc32)[C@H](O)[C@@H]1O` [MT-Tubercidin (10), 5′-methylthiotubercidin] has a Ki ([1]; read-out: Ki, Competition vs. [3H]hypoxanthine, 100 nM [3H]hypoxanthine) of 1100 µM.
For `Nc1ncnc2c1ccn2[C@@H]1O[C@H](CO)[C@@H](O)[C@H]1O` [Tubercidin, 7-deazaadenosine], the Ki [1, 8] is listed as 420 ± 110 µM, the Ki [2] is listed as 590 ± 100 µM and the “IC37, parasite growth inhibition” value ([7]; in vitro culture in RPMI media supplemented with human serum) is listed as 0.4 to 0.7 µM.
In the case of `Nc1ncnc2nc[nH]c12` [adenine], the Km [4, 10] is listed as 320 µM.
With `NC[C@H]1O[C@@H](n2cc(I)c3c(Cl)ncnc32)[C@H](O)[C@@H]1O` [compound 1, 4-Chloro-5-iodo-7-(5-amino-5-deoxy-β-d-ribofuranosyl)pyrrolo[2,3-d]pyrimidine] the Ki [1, 8] was 3400 µM, the “increase of transport Ki compared to tubercidin” value ([1]; vs [3H]hypoxanthine) was 8 fold and the Ki [2] was 1200 ± 300 µM.
In the case of `Nc1nc2nc[nH]c2c(=O)[nH]1` [guanine], the “concentration toxic to parasite growth” value [7] is listed as greater than 50 µM and the Km [6] is listed as 0.3 µM.
In the case of `Nc1nc2c(ncn2[C@@H]2O[C@H](CO)[C@@H](O)[C@H]2O)c(=O)[nH]1` [guanosine], the “concentration toxic to parasite growth” value [7] is listed as greater than 50 µM.
In the case of `OC[C@H]1O[C@@H](n2cnc3c(O)ncnc32)[C@H](O)[C@@H]1O` [inosine], the Km [4, 9] is given as 253 µM.
In the case of `O=c1[nH]c(=O)c2[nH]cnc2[nH]1` [xanthine], the “concentration toxic to parasite growth” value [7] is listed as greater than 50 µM.
